# Marks after values point to notes of the source that are not given here.
# How the values were obtained:
# [1] = Peak absorption wavelength, peak emission wavelength and fluorescent quantum yield; assay type: physicochemical
# Description: Table 2 provides a peak absorption wavelength (λabs maximum), peak emission wavelength (λem maximum), a fluorescent quantum yield (ΦF), and a synthesis yield for the various compounds. The synthesis yield is based on the synthetic pathway illustrated in FIG. 1.
# [2] = Emission spectrum on exposure to varying amounts of FeCl3; conditions: for total red-shift in peak emission wavelength: at saturation with Fe^3+
# Protocol: Two substituted chromones (Compound 11 and Compound 20) were dissolved in methanol and exposed to varying amounts of FeCl3 (i.e., Fe^3+). FIG. 4 illustrates the shift in emission spectrum of Compound 11 with increasing amounts of Fe^3+ ions. With about 10 equivalents of Fe^3+ ions, the shift in emission spectrum is saturated, with a total of about a 30 nm red-shift in peak emission wavelength. FIG. 5 illustrates the shift in emission spectrum of Compound 20 with increasing amounts of Fe^3+ ions. With about 10 equivalents of Fe^3+ ions, the shift in emission spectrum is saturated, with a total of about a 50 nm red-shift in peak emission wavelength.
# Compound 11 was dissolved in various solvents and then exposed to varying amounts of FeCl3 (i.e., Fe^3+).
# (§1) Compound 11 was dissolved in methanol and then exposed to varying amounts of FeCl3 (i.e., Fe^3+) or (NH4)2Fe(SO4)2.6H2O (i.e., Fe^2+). […] Therefore, Compound 11 may be used to detect Fe^3+ while in the presence of Fe^2+.
# [3] = Emission spectrum on exposure to varying amounts of lead nitrate
# Protocol: Compound 20 was dissolved in methanol and then exposed to varying amounts of […] (i.e., Pb^2+). […] Therefore, a kit, method, system, or the like may utilize a specific solvent system for detection of lead or other Ions. Alternatively, and especially where the metal ion concentration is unknown, a kit, method, system, or the like may utilize a series of solvent systems in parallel to determine a concentration of metal ions.
# A 5 μM sample of Compound 25 in 3:1 tetrahydrofuran:methanol or 2:1 tetrahydrofuran:methanol was prepared and exposed to varying amounts of Pb(NO3)2 (i.e., Pb^2+) dissolved in deionized water.
# [4] = Emission spectrum on exposure to varying amounts of (NH4)2Fe(SO4)2.6H2O; conditions: methanol; FIG. 6
# Protocol: as §1
smiles,measurement,setting,value
"COC(=O)C(C)(C)C1Oc2ccc(Cl)cc2C(=O)/C1=C\NS(=O)(=O)c1ccc(C)cc1 (stereo not drawn) [Compound 17, (Z)-methyl 2-(6-chloro-3-((4-methylphenylsulfonamido)methy-lene)-4-oxochroman-2-yl)-2-methylpropanoate]",ΦF,[1]; solvent dichloromethane,39* %
same,λabs maximum,[1]; solvent dichloromethane,367 nm
same,λem maximum,[1]; solvent dichloromethane,483 nm
"COC(=O)C(C)(C)C1Oc2ccc(F)cc2C(=O)/C1=C\O (stereo not drawn) [Compound 6, (Z)-methyl 2-(6-fluoro-3-(hydroxymethylene)-4-oxochroman-2-yl)-2-methylpropanoate]",ΦF,[1]; solvent dichloromethane,2* %
same,λabs maximum,[1]; solvent dichloromethane,364 nm
same,λem maximum,[1]; solvent dichloromethane,486 nm
"CCc1ccc2c(c1)C(=O)/C(=C\NS(=O)(=O)c1ccc(C)cc1)C(C(C)(C)C(=O)OC)O2 (stereo not drawn) [Compound 20, (Z)-methyl 2-(6-ethyl-3-((4-methylphenylsulfonamido)methy-lene)-4-oxochroman-2-yl)-2-methylpropanoate]",ΦF,[1]; solvent acetonitrile,16** %
same,λabs maximum,[1]; solvent acetonitrile,369 nm
same,λem maximum,[1]; solvent acetonitrile,496 nm
same,ΦF,[1]; solvent cyclohexane,30*** %
same,λabs maximum,[1]; solvent cyclohexane,364 nm
same,λem maximum,[1]; solvent cyclohexane,481 nm
same,ΦF,[1]; solvent dichloromethane,73* %
same,λabs maximum,[1]; solvent dichloromethane,370 nm
same,λem maximum,[1]; solvent dichloromethane,490 nm
same,red-shift in peak emission wavelength,[2]; 1:1 methanol:water as solvent,does not
same,amount of Fe^3+ ions at which the shift in emission spectrum is saturated,[2]; methanol,about 10 equivalents
same,total red-shift in peak emission wavelength,[2]; methanol,~50 nm
same,amount of Pb^2+ at max shift in peak emission wavelength,[3]; 1:1 tetrahydrofuran:methanol,about 5 equivalents
same,amount of Pb^2+ at max shift in peak emission wavelength,[3]; 3:1 tetrahydrofuran:methanol,about 3 equivalents
same,shift in peak emission wavelength,[3]; THF alone,no appreciable shift in peak emission wavelength
same,amount of Pb^2+ at which the shift in peak emission wavelength maxes out,[3]; methanol,10 equivalents
same,shift in peak emission wavelength at 1 equivalent Pb^2+,[3]; methanol,no appreciable shift
same,shift in peak emission wavelength at 1 equivalent Pb^2+,[3]; mixed tetrahydrofuran/methanol,appreciable shift
"COC(=O)C(C)(C)C1Oc2ccc(C)cc2C(=O)/C1=C\NS(=O)(=O)c1ccc(C)cc1 (stereo not drawn) [Compound 19, (Z)-methyl 2-methyl-2-(6-methyl-3-((4-methylphenylsulfonamido)methy-lene)-4-oxochroman-2-yl)propanoate]",ΦF,[1]; solvent acetonitrile,8** %
same,λabs maximum,[1]; solvent acetonitrile,380 nm
same,λem maximum,[1]; solvent acetonitrile,468 nm
same,ΦF,[1]; solvent cyclohexane,27*** %
same,λabs maximum,[1]; solvent cyclohexane,364 nm
same,λem maximum,[1]; solvent cyclohexane,479 nm
same,ΦF,[1]; solvent dichloromethane,70* %
same,λabs maximum,[1]; solvent dichloromethane,367 nm
same,λem maximum,[1]; solvent dichloromethane,492 nm
"COC(=O)C(C)(C)C1Oc2ccccc2C(=O)/C1=C\NS(=O)(=O)c1ccc(OC)cc1 (stereo not drawn) [Compound 23, (Z)methyl-2-(3-(((4-methoxyphenyl)sulfonamido)methy-lene)-4-oxochroman-2-yl)-2-methylpropanoate]",ΦF,[1]; solvent dichloromethane,38* %
same,λabs maximum,[1]; solvent dichloromethane,358 nm
same,λem maximum,[1]; solvent dichloromethane,479 nm
"COC(=O)C(C)(C)C1Oc2ccccc2C(=O)/C1=C\O (stereo not drawn) [Compound 5, (Z)-methyl 2-(3-(hydroxymethylene)-4-oxochroman-2-yl)-2-methylpropanoate]",ΦF,[1]; solvent dichloromethane,6* %
same,λabs maximum,[1]; solvent dichloromethane,362 nm
same,λem maximum,[1]; solvent dichloromethane,446 nm
"COC(=O)C(C)(C)C1Oc2ccc(OC)cc2C(=O)/C1=C\NS(=O)(=O)c1ccc(C)cc1 (stereo not drawn) [Compound 22, (Z)-methyl-2-(6-methoxy-3-(((4-methylphenyl)sulfonamido)methy-lene)-4-oxochroman-2-yl)-2-methylpropanoate]",ΦF,[1]; solvent dichloromethane,66* %
same,λabs maximum,[1]; solvent dichloromethane,390 nm
same,λem maximum,[1]; solvent dichloromethane,529 nm
"COC(=O)CC1Oc2ccc(OC)cc2C(=O)/C1=C\NS(=O)(=O)c1ccc(OC)cc1 (stereo not drawn) [Compound 26, (Z)-methyl-2-(6-methoxy-3-(((4-methoxyphenyl)sulfonamido)methy-lene)-4-oxochroman-2-yl)acetate]",ΦF,[1]; solvent dichloromethane,67* %
same,λabs maximum,[1]; solvent dichloromethane,386 nm
same,λem maximum,[1]; solvent dichloromethane,529 nm
"COC(=O)C(C)(C)C1Oc2ccc(C(C)C)cc2C(=O)/C1=C\NS(=O)(=O)c1ccc(C)cc1 (stereo not drawn) [Compound 21, (Z)methyl-2-(6-isopropyl-3-(((4-methylphenyl)sulfonamido)methy-lene)-4-oxochroman-2-yl)-2-methylpropanoate]",ΦF,[1]; solvent dichloromethane,71* %
same,λabs maximum,[1]; solvent dichloromethane,368 nm
same,λem maximum,[1]; solvent dichloromethane,490 nm
"COC(=O)C(C)(C)C1Oc2ccc(F)cc2C(=O)/C1=C\NS(=O)(=O)c1ccc(C)cc1 (stereo not drawn) [Compound 16, (Z)-methyl 2-(6-fluoro-3-((4-methylphenylsulfonamido)methy-lene)-4-oxochroman-2-yl)-2-methylpropanoate]",ΦF,[1]; solvent dichloromethane,33* %
same,λabs maximum,[1]; solvent dichloromethane,367 nm
same,λem maximum,[1]; solvent dichloromethane,492 nm
"COC(=O)C(C)(C)C1Oc2ccccc2C(=O)/C1=C\NS(=O)(=O)c1ccc(C)cc1 (stereo not drawn) [Compound 15, (Z)-methyl 2-methyl-2-(3-((4-methylphenylsulfonamido)methy-lene)-4-oxochroman-2-yl)propanoate]",ΦF,[1]; solvent dichloromethane,37* %
same,λabs maximum,[1]; solvent dichloromethane,358 nm
same,λem maximum,[1]; solvent dichloromethane,479 nm
"COC(=O)C(C)(C)C1Oc2ccc(OC)cc2C(=O)/C1=C\O (stereo not drawn) [Compound 11, (Z)-methyl-2-(3-(hydroxymethylene)-6-methoxy-4-oxochroman-2-yl)-2-methylpropanoate]",ΦF,[1]; solvent dichloromethane,20* %
same,λabs maximum,[1]; solvent dichloromethane,383 nm
same,λem maximum,[1]; solvent dichloromethane,482 nm
same,red-shift in peak emission wavelength,[2]; 1:1 methanol:water as solvent,still exhibits a red-shift in peak emission wavelength
same,amount of Fe^3+ ions at which the shift in emission spectrum is saturated,[2]; methanol,about 10 equivalents
same,intensity change of peak emission with increasing metal ion concentration,"[2]; methanol, FIG. 4",intensity decrease
same,shift of peak emission wavelength,"[2]; methanol, FIG. 4",significant red-shift
same,total red-shift in peak emission wavelength,[2]; methanol,~30 nm
same,red-shift in peak emission wavelength,"[2]; polar aprotic solvents: tetrahydrofuran, acetonitrile, acetone",did not exhibit an appreciable red-shift
same,red-shift in peak emission wavelength,"[2]; polar protic solvents: water, methanol, mixtures thereof",exhibited an appreciable red-shift
same,intensity change of peak emission with increasing metal ion concentration,[4],intensity decrease
same,shift of peak emission wavelength,[4],does not exhibit appreciable shift
"COC(=O)C(C)(C)C1Oc2ccc(Br)cc2C(=O)/C1=C\NS(=O)(=O)c1ccc(C)cc1 (stereo not drawn) [Compound 18, (Z)-methyl 2-(6-bromo-3-((4-methylphenylsulfonamido)methy-lene)-4-oxochroman-2-yl)-2-methylpropanoate]",ΦF,[1]; solvent dichloromethane,34* %
same,λabs maximum,[1]; solvent dichloromethane,343 nm
same,λem maximum,[1]; solvent dichloromethane,483 nm
"COC(=O)C(C)(C)C1Oc2ccc(C)cc2C(=O)/C1=C\NS(=O)(=O)c1ccc(OC)cc1 (stereo not drawn) [Compound 24, (Z)methyl-2-(3-(((4-methoxyphenyl)sulfonamido)methy-lene)-6-methyl-4-oxochroman-2-yl)-2-methylpropanoate]",ΦF,[1]; solvent dichloromethane,72* %
same,λabs maximum,[1]; solvent dichloromethane,367 nm
same,λem maximum,[1]; solvent dichloromethane,492 nm
"COC(=O)C(C)(C)C1Oc2c(Br)cc(Br)cc2C(=O)/C1=C\O (stereo not drawn) [Compound 14, (Z)-methyl 2-(6,8-dibromo-3-(hydroxymethylene)-4-oxochroman-2-yl)-2-methylpropanoate]",ΦF,[1]; solvent dichloromethane,3* %
same,λabs maximum,[1]; solvent dichloromethane,371 nm
same,λem maximum,[1]; solvent dichloromethane,451 nm
